Reference: US20240165261A1, “MEANS AND METHOD FOR CYTOSOLIC DELIVERY” (Universiteit Gent, priority 2021, published 2024)

Test system: primary human T cells
Test: FD10 delivery in primary human T cells by flow cytometry
Type: cell-based
Conditions: human T cells with dex-NG and FD10, ROS scavenger added (FIG. 12a)
Description: FIG. 8. […] Human T cells were isolated from peripheral blood mononuclear cells and expanded for several weeks. […] As a control, cells were treated with nucleofection (program E0-115, Lonza Nucleofector, white bars) (a) Quantitative analysis of FD10 delivery efficiency using flow cytometry. Cells were stained with a membrane exclusion dye (TO-PRO-3 iodide) staining dead cells. TO-PRO-3 iodide negative cells were gated for delivery efficiency analysis. (b) Analysis of cell viability, 4 h after treatment, using an ATP-based viability assay (CellTiter-Glo®). (c-d) Quantitative analysis of FD10 delivery efficiency using flow cytometry on TO-PRO-3 iodide negative cells. The yield is determined as percentage living cells (based on CellTiter-Glo® assay), multiplied by the percentage of FD10-positive cells. Data shown as the mean±SD of three independent experiments (n=3). Statistical significance is reported where relevant (ns p≥0.05, * p<0.05, ** p≤0.01, *** p≤0.001, **** p≤0.0001).
Human T cells were seeded at 1×10^6 cells per well in a glass bottom 96-well plate (Greiner Bio-One GmbH, Vilvoorde, Belgium). […] Quantitative analysis of delivery efficiency was performed using flow cytometry on living (i.e. TO-PRO-3 negative) cells (CytoFLEX equipped with CytExpert software; Beckman Coulter, Krefeld, Germany). […]

OCCS [β-mercaptoethanol]
beneficial effect on cytosolic FD10 delivery as seen with NAC: could not be replicated
